{
  "source": "PubChem BioAssay AID1963828",
  "about": "(Molecular Pharmacology Branch, DTP, NCI, 2024)",
  "test_system": "991263-137-R1-J2-PDC complex spheroid viability",
  "test": "Anticancer human tumor 991263-137-R1-J2-PDC patient-derived colon adenocarcinoma cell line growth inhibition [POLQ]",
  "conditions": "for IC50: curve of first compound; for viability, T/C: stronger effect = lower value",
  "how_it_was_run": "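Patient-derived tumour cells were co-cultured with HUVEC and mesenchymal stem cells as multicellular spheroids at 37 °C. They were treated with POLQ inhibitors (novobiocin, ART-558, RP6685) alone or combined with other agents. Top concentrations were at or near clinical Cmax (otherwise 10 microM; SN-38 at 1 microM), decreasing in half-log steps.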",
  "data": [
    {"compound": "C#Cc1c(F)ccc2cc(O)cc(-c3ncc4c(N5CC6CCC(C5)N6)nc(OCC56CCCN5CC(F)C6)nc4c3F)c12", "note": "(configuration not stated) + COC1C(OC(N)=O)C(O)C(Oc2ccc3c(O)c(NC(=O)c4ccc(O)c(CC=C(C)C)c4)c(=O)oc3c2C)OC1(C)C;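 also: spheroids exposed to compounds for 7 days before readout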;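 as to viability, T/C: 100% = DMSO vehicle control viability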", "values": [
      {"measurement": "IC50", "setting": "second compound 0.0316 µM", "value": "> 10", "unit": "µM"},
      {"measurement": "IC50", "setting": "second compound 0.1 µM", "value": "> 10", "unit": "µM"},
      {"measurement": "IC50", "setting": "second compound 0.316 µM", "value": "> 10", "unit": "µM"},
      {"measurement": "IC50", "setting": "second compound 1 µM", "value": "> 10", "unit": "µM"},
      {"measurement": "IC50", "setting": "second compound 3.16 µM", "value": "> 10", "unit": "µM"},
      {"measurement": "IC50", "setting": "second compound 10 µM", "value": "> 10", "unit": "µM"},
      {"measurement": "viability, T/C", "setting": "second compound 0.0316 µM, first compound 0.0316 µM", "value": 103, "unit": "%"},
      {"measurement": "viability, T/C", "setting": "second compound 0.0316 µM, first compound 0.1 µM", "value": 107, "unit": "%"},
      {"measurement": "viability, T/C", "setting": "second compound 0.0316 µM, first compound 0.316 µM", "value": 105, "unit": "%"},
      {"measurement": "viability, T/C", "setting": "second compound 0.0316 µM, first compound 1 µM", "value": 109, "unit": "%"},
      {"measurement": "viability, T/C", "setting": "second compound 0.0316 µM, first compound 3.16 µM", "value": 108, "unit": "%"},
      {"measurement": "viability, T/C", "setting": "second compound 0.0316 µM, first compound 10 µM", "value": 95.1, "unit": "%"},
      {"measurement": "viability, T/C", "setting": "second compound 0.1 µM, first compound 0.0316 µM", "value": 103, "unit": "%"},
      {"measurement": "viability, T/C", "setting": "second compound 0.1 µM, first compound 0.1 µM", "value": 106, "unit": "%"},
      {"measurement": "viability, T/C", "setting": "second compound 0.1 µM, first compound 0.316 µM", "value": 99.4, "unit": "%"},
      {"measurement": "viability, T/C", "setting": "second compound 0.1 µM, first compound 1 µM", "value": 88.2, "unit": "%"},
      {"measurement": "viability, T/C", "setting": "second compound 0.1 µM, first compound 3.16 µM", "value": 116, "unit": "%"},
      {"measurement": "viability, T/C", "setting": "second compound 0.1 µM, first compound 10 µM", "value": 104, "unit": "%"},
      {"measurement": "viability, T/C", "setting": "second compound 0.316 µM, first compound 0.0316 µM", "value": 98.9, "unit": "%"},
      {"measurement": "viability, T/C", "setting": "second compound 0.316 µM, first compound 0.1 µM", "value": 120, "unit": "%"},
      {"measurement": "viability, T/C", "setting": "second compound 0.316 µM, first compound 0.316 µM", "value": 118, "unit": "%"},
      {"measurement": "viability, T/C", "setting": "second compound 0.316 µM, first compound 1 µM", "value": 91.5, "unit": "%"},
      {"measurement": "viability, T/C", "setting": "second compound 0.316 µM, first compound 3.16 µM", "value": 114, "unit": "%"},
      {"measurement": "viability, T/C", "setting": "second compound 0.316 µM, first compound 10 µM", "value": 92.7, "unit": "%"},
      {"measurement": "viability, T/C", "setting": "second compound 1 µM, first compound 0.0316 µM", "value": 95.4, "unit": "%"},
      {"measurement": "viability, T/C", "setting": "second compound 1 µM, first compound 0.1 µM", "value": 113, "unit": "%"},
      {"measurement": "viability, T/C", "setting": "second compound 1 µM, first compound 0.316 µM", "value": 112, "unit": "%"},
      {"measurement": "viability, T/C", "setting": "second compound 1 µM, first compound 1 µM", "value": 107, "unit": "%"},
      {"measurement": "viability, T/C", "setting": "second compound 1 µM, first compound 3.16 µM", "value": 117, "unit": "%"},
      {"measurement": "viability, T/C", "setting": "second compound 1 µM, first compound 10 µM", "value": 90.6, "unit": "%"},
      {"measurement": "viability, T/C", "setting": "second compound 3.16 µM, first compound 0.0316 µM", "value": 104, "unit": "%"},
      {"measurement": "viability, T/C", "setting": "second compound 3.16 µM, first compound 0.1 µM", "value": 123, "unit": "%"},
      {"measurement": "viability, T/C", "setting": "second compound 3.16 µM, first compound 0.316 µM", "value": 122, "unit": "%"},
      {"measurement": "viability, T/C", "setting": "second compound 3.16 µM, first compound 1 µM", "value": 121, "unit": "%"},
      {"measurement": "viability, T/C", "setting": "second compound 3.16 µM, first compound 3.16 µM", "value": 109, "unit": "%"},
      {"measurement": "viability, T/C", "setting": "second compound 3.16 µM, first compound 10 µM", "value": 104, "unit": "%"},
      {"measurement": "viability, T/C", "setting": "second compound 10 µM, first compound 0.0316 µM", "value": 102, "unit": "%"},
      {"measurement": "viability, T/C", "setting": "second compound 10 µM, first compound 0.1 µM", "value": 102, "unit": "%"},
      {"measurement": "viability, T/C", "setting": "second compound 10 µM, first compound 0.316 µM", "value": 102, "unit": "%"},
      {"measurement": "viability, T/C", "setting": "second compound 10 µM, first compound 1 µM", "value": 110, "unit": "%"},
      {"measurement": "viability, T/C", "setting": "second compound 10 µM, first compound 3.16 µM", "value": 102, "unit": "%"},
      {"measurement": "viability, T/C", "setting": "second compound 10 µM, first compound 10 µM", "value": 91.6, "unit": "%"}
    ]}
  ]
}
